Test results as given in the supplement of paper PMC10307832.

Tests used:
Test in all cases: relative viability (nuclei count vs DMSO), 5 days (fraction); higher = more cells survive
VE-821 + Luminespib = compound: CS(=O)(=O)c1ccc(-c2cnc(N)c(C(=O)Nc3ccccc3)n2)cc1 [VE-821] + CCNC(=O)c1noc(-c2cc(C(C)C)c(O)cc2O)c1-c1ccc(CN2CCOCC2)cc1 [Luminespib] (partner 0.01 µM)
In short: (§1)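 Each reported value is a median over duplicate plates. It expresses relative viability: treated-well nuclei count divided by vehicle-well nuclei count. Lung cancer cell lines in 1536-well plates were dosed by pin tool a day after seeding, alone with one drug or with a fixed anchor-drug dose plus five library-drug doses (not always all listed) in √10 steps, and nuclei were counted after 5 days.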

Vismodegib + Phenformin = compound: CS(=O)(=O)c1ccc(C(=O)Nc2ccc(Cl)c(-c3ccccn3)c2)c(Cl)c1 [Vismodegib] + N=C(N)NC(=N)NCCc1ccccc1 [Phenformin] (partner 250 µM)
In short: as §1

Vismodegib + Tozasertib = compound: CS(=O)(=O)c1ccc(C(=O)Nc2ccc(Cl)c(-c3ccccn3)c2)c(Cl)c1 [Vismodegib] + Cc1cc(Nc2cc(N3CCN(C)CC3)nc(Sc3ccc(NC(=O)C4CC4)cc3)n2)n[nH]1 [Tozasertib] (partner 0.1 µM)
In short: as §1

Vismodegib + AZD7762 = compound: CS(=O)(=O)c1ccc(C(=O)Nc2ccc(Cl)c(-c3ccccn3)c2)c(Cl)c1 [Vismodegib] + NC(=O)Nc1cc(-c2cccc(F)c2)sc1C(=O)N[C@H]1CCCNC1 [AZD7762] (partner 0.2 µM)
In short: as §1

Row | Cell Line | relative viability (VE-821 + Luminespib; first compound 0.08 µM) | relative viability (VE-821 + Luminespib; first compound 0.253 µM) | relative viability (VE-821 + Luminespib; first compound 0.8 µM) | relative viability (VE-821 + Luminespib; first compound 2.53 µM) | relative viability (VE-821 + Luminespib; first compound 8 µM) | relative viability (Vismodegib + Phenformin; first compound 0.08 µM) | relative viability (Vismodegib + Phenformin; first compound 0.253 µM) | relative viability (Vismodegib + Phenformin; first compound 0.8 µM) | relative viability (Vismodegib + Phenformin; first compound 2.53 µM) | relative viability (Vismodegib + Phenformin; first compound 8 µM) | relative viability (Vismodegib + Tozasertib; first compound 0.08 µM) | relative viability (Vismodegib + Tozasertib; first compound 0.253 µM) | relative viability (Vismodegib + Tozasertib; first compound 0.8 µM) | relative viability (Vismodegib + Tozasertib; first compound 2.53 µM) | relative viability (Vismodegib + Tozasertib; first compound 8 µM) | relative viability (Vismodegib + AZD7762; first compound 0.08 µM) | relative viability (Vismodegib + AZD7762; first compound 0.253 µM) | relative viability (Vismodegib + AZD7762; first compound 0.8 µM) | relative viability (Vismodegib + AZD7762; first compound 2.53 µM) | relative viability (Vismodegib + AZD7762; first compound 8 µM)
1 | NCI-H1563 | 0.56 | 0.499 | 0.491 | 0.509 | 0.338 | 0.622 | 0.623 | 0.676 | 0.721 | 0.626 | – | – | – | – | – | – | – | – | – | –
2 | NCI-H1623 | 0.588 | 0.473 | 0.605 | 0.509 | 0.505 | 0.553 | 0.577 | 0.661 | 0.536 | 0.578 | 0.403 | 0.42 | 0.422 | 0.418 | 0.411 | – | – | – | – | –
3 | NCI-H1648 | – | – | – | – | – | – | – | – | – | – | 0.395 | 0.461 | 0.348 | 0.427 | 0.562 | 0.811 | 0.717 | 0.833 | 0.693 | 0.696
4 | NCI-H1650 | 0.204 | 0.19 | 0.25 | 0.211 | 0.172 | 0.387 | 0.414 | 0.479 | 0.415 | 0.406 | 0.413 | 0.365 | 0.315 | 0.286 | 0.34 | – | – | – | – | –
5 | NCI-H1703 | – | – | – | – | – | – | – | – | – | – | – | – | – | – | – | 0.139 | – | 0.134 | 0.104 | 0.152
6 | NCI-H1792 | 0.462 | 0.524 | 0.367 | 0.506 | 0.359 | – | 0.318 | 0.254 | – | 0.41 | – | – | – | – | – | 0.682 | 0.679 | 0.677 | 0.724 | 0.729
7 | NCI-H2009 | 1.03 | 0.974 | 0.918 | 1.09 | 0.863 | 0.467 | 0.474 | 0.478 | 0.45 | 0.467 | 0.727 | 0.674 | 0.834 | 0.817 | 0.733 | – | – | – | – | –
8 | NCI-H2023 | 0.734 | 0.624 | 0.458 | 0.212 | 0.125 | 0.367 | 0.364 | 0.43 | 0.384 | 0.401 | 0.356 | 0.341 | 0.348 | 0.315 | 0.227 | – | – | – | – | –
9 | NCI-H2228 | 0.125 | 0.165 | 0.131 | 0.132 | 0.0911 | 0.387 | 0.452 | 0.301 | 0.296 | 0.314 | 0.218 | 0.277 | 0.23 | 0.217 | 0.265 | – | – | – | – | –
10 | SK-LU-1 | 0.177 | 0.203 | 0.193 | 0.203 | 0.164 | 0.569 | 0.489 | 0.538 | 0.477 | 0.705 | 0.269 | 0.348 | 0.295 | 0.347 | 0.361 | – | – | – | – | –
11 | SK-MES-1 | 1.09 | 0.797 | 0.746 | 0.537 | 0.306 | 0.625 | 0.647 | 0.669 | 0.635 | 0.631 | 0.881 | 0.871 | 0.974 | 0.841 | 0.827 | – | – | – | – | –
12 | SW 1573 | 0.21 | 0.228 | 0.214 | 0.226 | 0.165 | 0.493 | 0.353 | 0.4 | 0.323 | 0.385 | 0.185 | 0.206 | 0.16 | 0.13 | 0.19 | – | – | – | – | –
